Measured values reported in ChEMBL document CHEMBL1201862, “PubChem BioAssay data set” (2004).
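How tested: cells in 96-well plates exposed to compound for 48 hours at five concentrations. GI50 is the concentration that inhibits growth by half.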 Calls of active or inactive are those of the source. Cut-off read from the data, not from the text of the source: active = GI50 up to about 1.1 µM and inactive = higher.

Experiments:
Test in all cases: NCI tumour cell line growth inhibition, 48 h
T47D = test system: T47D
NCI-H522 = test system: NCI-H522
TK-10 = test system: TK-10
HT-29 = test system: HT-29
SN12C = test system: SN12C
OVCAR-5 = test system: OVCAR-5
MOLT-4 = test system: MOLT-4
SK-MEL-28 = test system: SK-MEL-28
OVCAR-8 = test system: OVCAR-8
COLO 205 = test system: COLO 205
Hs-578T = test system: Hs-578T
SNB-75 = test system: SNB-75
NCI/ADR-RES = test system: NCI/ADR-RES
DU-145 = test system: DU-145
BT-549 = test system: BT-549
HCC 2998 = test system: HCC 2998
HCT-116 = test system: HCT-116
EKVX = test system: EKVX
IGROV-1 = test system: IGROV-1
SK-OV-3 = test system: SK-OV-3
SF-539 = test system: SF-539
M14 = test system: M14
SR = test system: SR
MDA-MB-435 = test system: MDA-MB-435
RXF 393 = test system: RXF 393
U-251 = test system: U-251
HCT-15 = test system: HCT-15
SW-620 = test system: SW-620
PC-3 = test system: PC-3
UACC-62 = test system: UACC-62
SK-MEL-5 = test system: SK-MEL-5
OVCAR-3 = test system: OVCAR-3
SK-MEL-2 = test system: SK-MEL-2
RPMI-8226 = test system: RPMI-8226
NCI-H226 = test system: NCI-H226
786-0 = test system: 786-0
HOP-92 = test system: HOP-92
HOP-62 = test system: HOP-62
SNB-19 = test system: SNB-19
CAKI-1 = test system: CAKI-1
HL-60 = test system: HL-60
KM12 = test system: KM12
Malme-3M = test system: Malme-3M
CCRF-CEM = test system: CCRF-CEM
OVCAR-4 = test system: OVCAR-4
NCI-H23 = test system: NCI-H23
SF-295 = test system: SF-295
UO-31 = test system: UO-31
ACHN = test system: ACHN
LOX IMVI = test system: LOX IMVI
A549 = test system: A549
SF-268 = test system: SF-268
UACC-257 = test system: UACC-257
K562 = test system: K562
MCF7 = test system: MCF7
NCI-H460 = test system: NCI-H460
A498 = test system: A498
MDA-MB-231 = test system: MDA-MB-231
MDA-N = test system: MDA-N

Cc1ccc(-c2n[nH]c(=O)n2/N=C\c2ccc([N+](=O)[O-])cc2)cc1
GI50 (T47D): > 91.8 µM (inactive)
GI50 (NCI-H522): > 100 µM (inactive)
GI50 (TK-10): > 100 µM (inactive)
GI50 (HT-29): > 65.6 µM (inactive)
GI50 (SN12C): > 100 µM (inactive)
GI50 (OVCAR-5): > 100 µM (inactive)
GI50 (MOLT-4): > 42.2 µM (inactive)
GI50 (SK-MEL-28): > 100 µM (inactive)
GI50 (OVCAR-8): > 100 µM (inactive)
GI50 (COLO 205): > 100 µM (inactive)
GI50 (Hs-578T): 41.1 µM (inactive)
GI50 (SNB-75): 97.5 µM (inactive)
GI50 (NCI/ADR-RES): > 100 µM (inactive)
GI50 (DU-145): > 100 µM (inactive)
GI50 (BT-549): 54.1 µM (inactive)
GI50 (HCC 2998): > 100 µM (inactive)
GI50 (HCT-116): 72.6 µM (inactive)
GI50 (EKVX): > 100 µM (inactive)
GI50 (IGROV-1): > 100 µM (inactive)
GI50 (SK-OV-3): > 100 µM (inactive)
GI50 (SF-539): > 100 µM (inactive)
GI50 (M14): 58.2 µM (inactive)
GI50 (SR): 31.8 µM (inactive)
GI50 (MDA-MB-435): 35 µM (inactive)
GI50 (RXF 393): > 73.8 µM (inactive)
GI50 (U-251): > 100 µM (inactive)
GI50 (HCT-15): 86.7 µM
GI50 (SW-620): > 71.9 µM (inactive)
GI50 (PC-3): > 100 µM (inactive)
GI50 (UACC-62): 60.1 µM (inactive)
GI50 (SK-MEL-5): 92.9 µM (inactive)
GI50 (OVCAR-3): > 100 µM (inactive)
GI50 (SK-MEL-2): > 100 µM (inactive)
GI50 (RPMI-8226): 76.9 µM (inactive)
GI50 (NCI-H226): > 100 µM (inactive)
GI50 (786-0): > 100 µM (inactive)
GI50 (HOP-92): > 74.3 µM (inactive)
GI50 (HOP-62): 52.4 µM (inactive)
GI50 (SNB-19): > 100 µM (inactive)
GI50 (CAKI-1): > 100 µM (inactive)
GI50 (HL-60): > 35.7 µM (inactive)
GI50 (KM12): > 100 µM (inactive)
GI50 (Malme-3M): > 100 µM (inactive)
GI50 (CCRF-CEM): > 32.1 µM (inactive)
GI50 (OVCAR-4): > 100 µM (inactive)
GI50 (NCI-H23): > 100 µM (inactive)
GI50 (SF-295): > 100 µM (inactive)
GI50 (UO-31): > 93.3 µM (inactive)
GI50 (ACHN): > 80.5 µM (inactive)
GI50 (LOX IMVI): > 100 µM (inactive)
GI50 (A549): > 100 µM (inactive)
GI50 (SF-268): > 100 µM (inactive)
GI50 (UACC-257): > 100 µM (inactive)
GI50 (K562): 32 µM (inactive)
GI50 (MCF7): 99.5 µM (inactive)
GI50 (NCI-H460): > 100 µM (inactive)
GI50 (A498): > 100 µM (inactive)
GI50 (MDA-MB-231): 9.75 µM (inactive)

O=CC12C3CCC1C2C(=O)C3 (configuration not stated)
GI50 (NCI-H522): > 100 µM (inactive)
GI50 (TK-10): > 100 µM (inactive)
GI50 (HT-29): > 100 µM (inactive)
GI50 (SN12C): > 100 µM (inactive)
GI50 (OVCAR-5): > 100 µM (inactive)
GI50 (MOLT-4): > 100 µM (inactive)
GI50 (SK-MEL-28): > 100 µM (inactive)
GI50 (OVCAR-8): > 100 µM (inactive)
GI50 (COLO 205): > 100 µM (inactive)
GI50 (SNB-75): > 100 µM (inactive)
GI50 (NCI/ADR-RES): > 100 µM (inactive)
GI50 (DU-145): > 100 µM (inactive)
GI50 (BT-549): > 100 µM (inactive)
GI50 (HCC 2998): > 100 µM (inactive)
GI50 (HCT-116): > 100 µM (inactive)
GI50 (EKVX): > 100 µM (inactive)
GI50 (IGROV-1): > 100 µM (inactive)
GI50 (SK-OV-3): > 100 µM (inactive)
GI50 (SF-539): > 100 µM (inactive)
GI50 (M14): > 100 µM (inactive)
GI50 (SR): > 100 µM (inactive)
GI50 (MDA-MB-435): > 100 µM (inactive)
GI50 (RXF 393): > 100 µM (inactive)
GI50 (U-251): > 100 µM (inactive)
GI50 (HCT-15): > 100 µM
GI50 (SW-620): > 100 µM (inactive)
GI50 (PC-3): > 100 µM (inactive)
GI50 (UACC-62): > 100 µM (inactive)
GI50 (SK-MEL-5): > 100 µM (inactive)
GI50 (OVCAR-3): > 100 µM (inactive)
GI50 (SK-MEL-2): > 100 µM (inactive)
GI50 (RPMI-8226): > 100 µM (inactive)
GI50 (NCI-H226): > 100 µM (inactive)
GI50 (786-0): > 100 µM (inactive)
GI50 (HOP-92): > 100 µM (inactive)
GI50 (MDA-N): > 100 µM (inactive)
GI50 (HOP-62): > 100 µM (inactive)
GI50 (SNB-19): > 100 µM (inactive)
GI50 (CAKI-1): > 100 µM (inactive)
GI50 (KM12): > 100 µM (inactive)
GI50 (Malme-3M): > 100 µM (inactive)
GI50 (CCRF-CEM): > 100 µM (inactive)
GI50 (OVCAR-4): > 100 µM (inactive)
GI50 (NCI-H23): > 100 µM (inactive)
GI50 (SF-295): > 100 µM (inactive)
GI50 (ACHN): > 100 µM (inactive)
GI50 (LOX IMVI): > 100 µM (inactive)
GI50 (A549): > 100 µM (inactive)
GI50 (SF-268): > 100 µM (inactive)
GI50 (UACC-257): > 100 µM (inactive)
GI50 (K562): > 100 µM (inactive)
GI50 (MCF7): > 100 µM (inactive)
GI50 (NCI-H460): > 100 µM (inactive)
GI50 (MDA-MB-231): > 100 µM (inactive)
